According to patent US20160346255A1, “METHODS, AGENTS AND COMPOSITIONS FOR TREATMENT OF INFLAMMATORY CONDITIONS” (Betanien Hospital, priority 2014, published 2016):
Non-standard residues stand in square brackets, D forms with d. Residues, ends and D or L forms follow the SMILES beside them. *: point of attachment. dPhe(4-NHCONH2) = NC(=O)Nc1ccc(C[C@@H](N)C(=O)O)cc1; Dihydroorotyl(S) = O=C1C[C@@H](C(=O)*)NC(=O)N1; dPhe(4-Cl) = N[C@H](Cc1ccc(Cl)cc1)C(=O)O; Phe(4-NH2) = Nc1ccc(C[C@H](N)C(=O)O)cc1; d2Nal = N[C@H](Cc1ccc2ccccc2c1)C(=O)O; Lys(iPr) = CC(C)NCCCC[C@H](N)C(=O)O; d3Pal = N[C@H](Cc1cccnc1)C(=O)O

Tested on: Patient with Ankylosing Spondylitis
Test: Ankylosing spondylitis patient treated with degarelix (and earlier TNF inhibitors)
Assay type: in vivo, human
Details: for Glomerular filtration rate (>60): 10 Sep. 2014 56; for Creatinine (60-105 μmol/L): 10 Sep. 2014 112; for Urate (230-480 μmol/L): 10 Sep. 2014 515; for CRP: 10 Sep. 2014 <5; for BASDAI: baseline 8.7
Description: Example of Treating a Patient with Ankylosing Spondylitis with a GnRH Antagonist
Diagnosed with ankylosing spondylitis in 1984, HLAB27 positive, with repeated iridocyclitis. Used non-steroidal anti-inflammatory drugs previously. They were offered the TNFα inhibitor Golilimumab in 2010. Their disease activity score was 8.9 in October 2010 (see below for explanation of disease activity score) on initiating Golilimumab; by the June 2012 this score had reduced to 6.6, but by May 2013 the effect had worn off and their score was 7.6. May 2013, they initiated Enbrel treatment, but their disease activity increased from 7.6 to 8.3. Due to their poor response to TNFα therapy, they were offered the GnRH antagonist degarelix in September 2014.
Disease activity in ankylosing spondylitis is measured by the BASDAI (Bath Ankylosing Spondylitis Disease Activity Index (1)), which has been extensively validated in clinical trials, 2, 3 and is one of the most commonly used outcome measures in clinical trials. This is a composite index that evaluates fatigue, axial and peripheral pain, stiffness and enthesopathy. Their BASDAI was at 8.7 at baseline. In September 2014 they received their first dose of degarelix 240 mg s.c. By 2 weeks, their BASDAI had reduced to 6.8, and by 6 weeks it had reduced to 5.8. This is the lowest BASDAI score they have ever had since we first started using this method of assessment 4 years ago in 2010. Their morning stiffness lasted 4 hours at baseline, by 6 weeks their morning stiffness had reduced to 2 hours. They had their second dose of degarelix 80 mg s.c in October 2014. Lumbar flexion and maximum arm abduction were increased after 6 weeks of treatment.
Response to therapy in clinical practice is defined as improvement of 2 units or 50% on a 0-10 scale of the BASDAI, and expert opinion that the treatment should be continued. Their reduction by 6 weeks was 2.9 units, and 7.1 units with an 82% BASDAI score improvement by 9 weeks, and we shall continue treatment. A BASDAI 50% improvement is defined as a major clinical response. […] For comparison, approximately 50-60% of patients achieve a BASDAI 50 by 12 weeks on TNF inhibitors (4). Their ESR has decreased from 46 mm to 23 mm, which is their lowest ESR reading in 19 years. […] By 9 weeks of GnRH antagonist therapy, their kidney function has normalized, and fasting glucose reduced from 7.4 to 6.5 mmol/L. By 3 months, the effect on their ankylosing spondylitis remained, creatinine was at 98 μmol/L, with a glomerular filtration rate of 66 ml/min/1.73 m^2 in December 2014.

[1] = ankylosing spondylitis patient, after 6 weeks
[2] = ankylosing spondylitis patient, by 3 months, December 2014
[3] = ankylosing spondylitis patient, by 6 weeks
[4] = ankylosing spondylitis patient, by 9 weeks

**Q.** With CC(=O)N[C@H](Cc1ccc2ccccc2c1)C(=O)N[C@H](Cc1ccc(Cl)cc1)C(=O)N[C@H](Cc1cccnc1)C(=O)N[C@@H](CO)C(=O)N[C@@H](Cc1ccc(NC(=O)[C@@H]2CC(=O)NC(=O)N2)cc1)C(=O)N[C@H](Cc1ccc(NC(N)=O)cc1)C(=O)N[C@@H](CC(C)C)C(=O)N[C@@H](CCCCNC(C)C)C(=O)N1CCC[C@H]1C(=O)N[C@H](C)C(N)=O [degarelix] (Ac-[d2Nal][dPhe(4-Cl)][d3Pal]S[Phe(4-NH2)](Dihydroorotyl(S))[dPhe(4-NHCONH2)]L[Lys(iPr)]P[dA]-NH2) as the compound, how does the “Glucose fasting (4.0-6.0 mmol/L)” value (10 Nov. 2014 (9 weeks), 10 Sep. 2014 7.4) read?
**A.** Its value is 6.5 mmol/L.

**Q.** What about the “Glomerular filtration rate (>60)” value (10 Nov. 2014) of the same compound?
**A.** The value was 65 ml/min/1.73 m^2.

**Q.** And the “Creatinine (60-105 μmol/L)” value (10 Nov. 2014)?
**A.** Its value is 99 µmol/L.

**Q.** And the “Urate (230-480 μmol/L)” value (10 Nov. 2014)?
**A.** The value was 426 µmol/L.

**Q.** And the CRP (10 Nov. 2014)?
**A.** Its CRP is under 5.

**Q.** And the “Glomerular filtration rate (>60)” value (24 Sep. 2014)?
**A.** Its value is 55↓ ml/min/1.73 m^2.

**Q.** What about the “Creatinine (60-105 μmol/L)” value (24 Sep. 2014) of the same compound?
**A.** The value was 114↑ μmol/L.

**Q.** And the “Urate (230-480 μmol/L)” value (24 Sep. 2014)?
**A.** Its value is 512↑ μmol/L.

**Q.** What about the “ESR (<20 mm)” value (24 Sep. 2014, 10 Sep. 2014 (start) 46) of the same compound?
**A.** The value was 31↑ mm.

**Q.** What about the CRP (24 Sep. 2014) of the same compound?
**A.** The CRP was under 5.

**Q.** What about the “ESR (<20 mm)” value (27 Oct. 2014, 10 Sep. 2014 46) of the same compound?
**A.** Its value is 28↑ mm.

**Q.** What about the “Glomerular filtration rate (>60)” value (27 Oct. 2014) of the same compound?
**A.** Its value is 56↓ ml/min/1.73 m^2.

**Q.** What about the “Creatinine (60-105 μmol/L)” value (27 Oct. 2014) of the same compound?
**A.** Its value is 111↑ μmol/L.

**Q.** What about the “Urate (230-480 μmol/L)” value (27 Oct. 2014) of the same compound?
**A.** Its value is 495↑ μmol/L.

**Q.** And the CRP (27 Oct. 2014)?
**A.** The CRP was under 5.

**Q.** What about the Lumbar flexion [1] of the same compound?
**A.** Its Lumbar flexion is “increased”.

**Q.** And the Maximum arm abduction [1]?
**A.** Its Maximum arm abduction is “increased”.

**Q.** And the ASAS response achieved (ankylosing spondylitis patient, at least 80% improvement)?
**A.** The ASAS response achieved was “ASAS 80”.

**Q.** And the BASDAI (ankylosing spondylitis patient, by 2 weeks)?
**A.** The BASDAI was 6.8.

**Q.** What about the Creatinine [2] of the same compound?
**A.** The Creatinine was 98 µmol/L.

**Q.** And the Glomerular filtration rate [2]?
**A.** The Glomerular filtration rate was 66 ml/min/1.73 m^2.

**Q.** And the BASDAI reduction [3]?
**A.** Its BASDAI reduction is 2.9 units.

**Q.** And the BASDAI [3]?
**A.** Its BASDAI is 5.8.

**Q.** And the Morning stiffness (ankylosing spondylitis patient, by 6 weeks, baseline 4 hours)?
**A.** Its Morning stiffness is 2 h.

**Q.** And the BASDAI reduction [4]?
**A.** Its BASDAI reduction is 7.1 units.

**Q.** What about the BASDAI score improvement [4] of the same compound?
**A.** The BASDAI score improvement was 82%.

**Q.** What about the Kidney function [4] of the same compound?
**A.** Its Kidney function is “normalized”.
